Assay results reported in patent EP4644383A1 (Jiangsu Yahong Meditech Co., Ltd., priority 2022, dated 2024).
Read-outs that look alike come from different tables or passages of the source.

Experiments:
[1] = system: Ba/F3-FGFR3-BAIAP2L1 cells; assay: Inhibition of proliferation activity of Ba/F3-FGFR3-BAIAP2L1 cells (CellTiter-Glo); format: cell-based; details: for IC50: Ba/F3-FGFR3-BAIAP2L1 cells, 72 hours, CTG, read-out: IC50 (nM) Ba/F3-FGFR3-BAIAP2L1; for Selectivity (X) FGFR1/FGFR3: ratio of IC50 Ba/F3-BCR-FGFR1 to IC50 Ba/F3-FGFR3-BAIAP2L1
Method: The present experiment used CellTiter-Glo® Luminescent Cell Viability Assay (Promega: G7573) kit, which was a homogeneous cell viability detection method and determined the cell viability of cultured cells by quantifying ATP. • ① Ba/F3-BCR-FGFR1 or Ba/F3-FGFR3-BAIAP2L1 cells were cultured in 1640 complete medium (Gibco: 11879020) (10% FBS (Gibco: 10091-148)+1% Pen Strep (Gibco: 15140122)) under the condition of 37°C and 5% CO2. • (2) The cells in logarithmic growth phase were harvested and counted using a […]. The trypan blue exclusion method was used to detect cell viability to ensure the cell viability was above 90%. • ③ The cell density was adjusted using 1640 complete medium, and then, the cells were seeded into a 96-well cell culture plate at 90 µL/well with a total of 2000 cells. • ④ A 10-fold drug solution was prepared starting from a maximum drug concentration of 10 µM and 4-fold serially diluted into10 concentrations. […] The luminescence values were read to collect the data. • ⑩ The data were analyzed using XLFit excel plugin version 5.5.0.5, and fitted with non-linear S-curve regression to obtain the dose-response curves and thus calculate the IC50 values. Y = Bottom + (Top-Bottom)/((1+(IC50/X))^(∧) HillSlope [formula]
(§1) "Top" refers to the maximum response, "Bottom" refers to the minimum response, and "HillSlope" refers to the slope of the curve.
(§2) "Max" represents the average value of the cell control+DMSO, and "Min" represents the average value of the medium control+DMSO.

FGFR3 = target: T1, FGFR3 (Homo sapiens, UniProt P22607); assay: FGFR3 kinase activity inhibition assay (LanthaScreen TR-FRET); format: biochemical; details: for Selectivity (X) FGFR1/FGFR3: ratio of IC50 FGFR1/FGFR3, selectivity towards FGFR3; for Selectivity (X) FGFR2/FGFR3: ratio of IC50 FGFR2/FGFR3, selectivity towards FGFR3; for Selectivity (X) FGFR4/FGFR3: ratio of IC50 FGFR4/FGFR3, selectivity towards FGFR3
T1 construct: FGFR3's cytoplasmic domain [436-806 (terminal) amino acids]; purchased Carna 08-135
T1 sequence (P22607 436-806): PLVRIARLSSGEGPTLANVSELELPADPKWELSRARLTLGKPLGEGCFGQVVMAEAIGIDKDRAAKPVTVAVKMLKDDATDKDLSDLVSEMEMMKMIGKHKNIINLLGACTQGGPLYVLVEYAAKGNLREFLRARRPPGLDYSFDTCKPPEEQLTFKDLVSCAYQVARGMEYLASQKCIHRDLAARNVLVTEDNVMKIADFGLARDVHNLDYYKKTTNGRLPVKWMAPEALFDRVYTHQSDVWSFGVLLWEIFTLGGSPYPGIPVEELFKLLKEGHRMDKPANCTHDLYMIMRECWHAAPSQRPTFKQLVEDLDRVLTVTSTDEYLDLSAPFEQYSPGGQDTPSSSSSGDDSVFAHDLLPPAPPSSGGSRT
Procedure, shortened: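 Read-out is TR-FRET, with the 520 nm/495 nm emission ratio normalised to DMSO (max) and enzyme-free (min) controls. Enzyme was the FGFR3 cytoplasmic domain, residues 436-806. EDTA (10 mM) stopped the reaction, followed by 60 min at 22 °C before reading.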

Ba/F3-BCR-FGFR1 cells = assay: Inhibition of proliferation activity of Ba/F3-BCR-FGFR1 cells (CellTiter-Glo); format: cell-based; details: Ba/F3-BCR-FGFR1 cells, 72 hours, CTG; read-out: IC50 (nM) Ba/F3-BCR-FGFR1
Method: The present experiment used CellTiter-Glo® Luminescent Cell Viability Assay (Promega: G7573) kit, which was a homogeneous cell viability detection method and determined the cell viability of cultured cells by quantifying ATP. • ① Ba/F3-BCR-FGFR1 or Ba/F3-FGFR3-BAIAP2L1 cells were cultured in 1640 complete medium (Gibco: 11879020) (10% FBS (Gibco: 10091-148)+1% Pen Strep (Gibco: 15140122)) under the condition of 37°C and 5% CO2. • (2) The cells in logarithmic growth phase were harvested and counted using a […]. The trypan blue exclusion method was used to detect cell viability to ensure the cell viability was above 90%. • ③ The cell density was adjusted using 1640 complete medium, and then, the cells were seeded into a 96-well cell culture plate at 90 µL/well with a total of 2000 cells. • ④ A 10-fold drug solution was prepared starting from a maximum drug concentration of 10 µM and 4-fold serially diluted into10 concentrations. Then, 10 µL of each of the serially diluted compounds was transferred to the corresponding experimental wells of a 96-well cell plate, with two replicates for each drug concentration. • ⑤ The 96-well plate with the cells that had been treated with the drugs was placed under the condition of 37°C and 5% CO2 to be further cultured for 72 hours, and then analyzed by CTG. • ⑥ The CTG reagent was melted and the cell plate was equilibrated to room temperature for 30 minutes. • ⑦ 50 µL of the CTG solution was added to each well. • ⑧ The cell plate was shaken on an orbital shaker for 5 minutes to lyse the cells. • ⑨ The cell plate was placed at room temperature for 20 minutes to stabilize the luminescence signal. The luminescence values were read to collect the data. • ⑩ The data were analyzed using XLFit excel plugin version 5.5.0.5, and fitted with non-linear S-curve regression to obtain the dose-response curves and thus calculate the IC50 values. Y = Bottom + (Top-Bottom)/((1+(IC50/X))^(∧) HillSlope [formula]
as §1, §2

FGFR1 = target: T2, FGFR1 (Homo sapiens, UniProt P11362); assay: FGFR1 kinase activity inhibition assay (LanthaScreen TR-FRET); format: biochemical
T2 construct: cytoplasmic domain [398-822 (terminal) amino acids]; purchased Carna 08-133
T2 sequence (P11362 398-822): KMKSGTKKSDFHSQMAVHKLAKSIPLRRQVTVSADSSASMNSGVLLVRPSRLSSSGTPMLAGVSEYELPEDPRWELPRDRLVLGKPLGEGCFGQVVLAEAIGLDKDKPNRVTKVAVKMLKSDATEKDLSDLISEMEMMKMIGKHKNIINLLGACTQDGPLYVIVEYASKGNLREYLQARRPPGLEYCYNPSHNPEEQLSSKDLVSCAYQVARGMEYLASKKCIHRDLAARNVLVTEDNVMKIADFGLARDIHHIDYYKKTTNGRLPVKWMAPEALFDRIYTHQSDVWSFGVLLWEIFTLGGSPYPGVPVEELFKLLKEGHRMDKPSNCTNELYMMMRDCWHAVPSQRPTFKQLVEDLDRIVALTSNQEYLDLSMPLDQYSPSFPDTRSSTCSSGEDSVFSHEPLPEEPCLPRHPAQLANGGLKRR
Procedure, shortened: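 Emission ratio 520 nm/495 nm by TR-FRET after stopping reaction with 10 mM EDTA and 60 min incubation at 22°C. Inhibition normalized between no-enzyme (min) and DMSO (max) controls, then fitted to a four-parameter curve (Top, Bottom, HillSlope).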

FGFR2 = target: T3, FGFR2 (Homo sapiens, UniProt P21802); assay: FGFR2 kinase activity inhibition assay (LanthaScreen TR-FRET); format: biochemical
T3 construct: FGFR2's cytoplasmic domain [399-821 (terminal) amino acids]; purchased Carna 08-134
T3 sequence (P21802 399-821): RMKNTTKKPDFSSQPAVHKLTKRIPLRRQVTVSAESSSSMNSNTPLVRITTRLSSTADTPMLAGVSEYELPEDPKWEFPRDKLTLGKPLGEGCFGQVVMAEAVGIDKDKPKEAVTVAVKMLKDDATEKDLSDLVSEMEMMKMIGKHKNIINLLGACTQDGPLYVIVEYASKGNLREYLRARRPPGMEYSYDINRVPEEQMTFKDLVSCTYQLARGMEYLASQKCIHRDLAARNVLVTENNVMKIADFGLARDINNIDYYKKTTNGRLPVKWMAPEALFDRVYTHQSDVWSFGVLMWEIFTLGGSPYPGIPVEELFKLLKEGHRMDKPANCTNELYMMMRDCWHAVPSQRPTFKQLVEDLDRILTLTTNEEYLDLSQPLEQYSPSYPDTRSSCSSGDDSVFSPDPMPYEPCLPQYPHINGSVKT
Procedure, shortened: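 GST-fused FGFR2 cytoplasmic domain (aa 399-821) was run as in the FGFR1 protocol: preincubated 10 min at 23 °C with compound (3-fold series from 1 µM) in 50 mM HEPES pH 7.5, 10 mM MgCl2, 4 mM DTT, 1% DMSO. A 2× mix of 28 nM fluorescein-poly GT/28 µM ATP then reacted 30 min. Tb-PY20/EDTA quench preceded the TR-FRET 520/495 read.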

FGFR4 = target: T4, FGFR4 (Homo sapiens, UniProt P22455); assay: FGFR4 kinase activity inhibition assay (LanthaScreen TR-FRET); format: biochemical
T4 construct: FGFR4's cytoplasmic domain [460-802 (terminal) amino acids]; purchased Carna 08-136
T4 sequence (P22455 460-802): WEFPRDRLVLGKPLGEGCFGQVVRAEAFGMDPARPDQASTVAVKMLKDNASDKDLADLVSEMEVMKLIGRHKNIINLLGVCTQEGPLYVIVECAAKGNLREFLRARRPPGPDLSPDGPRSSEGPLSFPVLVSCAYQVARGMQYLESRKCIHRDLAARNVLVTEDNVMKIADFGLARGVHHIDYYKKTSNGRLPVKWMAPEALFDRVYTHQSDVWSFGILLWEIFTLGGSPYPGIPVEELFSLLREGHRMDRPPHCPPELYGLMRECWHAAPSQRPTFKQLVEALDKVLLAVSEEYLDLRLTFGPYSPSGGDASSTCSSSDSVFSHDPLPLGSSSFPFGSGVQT
Procedure, shortened: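 GST-tagged cytoplasmic domains (FGFR2 aa 399-821; FGFR4 aa 460-802) were preincubated 10 min at 23 °C with compound (top 1 µM, threefold dilutions). Then 28 nM fluorescein-poly GT and 28 µM ATP were added for 30 min at 23 °C in HEPES pH 7.5 buffer. Tb-PY20 TR-FRET 520/495 ratio gave % inhibition versus DMSO and no-enzyme controls.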

[2] = FGFR3 kinase, TR-FRET, read-out: IC50 (nM) FGFR3
[3] = FGFR1 kinase, TR-FRET, read-out: IC50 (nM) FGFR1
[4] = FGFR2 kinase, TR-FRET, read-out: IC50 (nM) FGFR2
[5] = FGFR4 kinase, TR-FRET, read-out: IC50 (nM) FGFR4

Molecule	IC50 [1] [nM]	IC50 (FGFR3; [2]) [nM]	Selectivity (X) FGFR1/FGFR3 (FGFR3)	IC50 (Ba/F3-BCR-FGFR1 cells) [nM]	IC50 (FGFR1; [3]) [nM]	IC50 (FGFR2; [4]) [nM]	IC50 (FGFR4; [5]) [nM]	Selectivity (X) FGFR2/FGFR3 (FGFR3)	Selectivity (X) FGFR4/FGFR3 (FGFR3)	Selectivity (X) FGFR1/FGFR3 [1] [X]	IC50 (FGFR2) [nM]	IC50 (FGFR4) [nM]	IC50 (FGFR3) [nM]	IC50 (FGFR1) [nM]
CC(Oc1ccc2[nH]nc(-c3cnn(C)c3)c2c1)c1cccc2ncnn12 (centres unmarked) [Example 96, 5-(1-((3-(1-methyl-1H-pyrazol-4-yl)-1H-indazol-5-yl)oxy)ethyl)-[1,2,4]triazolo[1,5-a]pyridine]	11.8	1 to 10	A (A represents 1 ≤ multiple X<20)	430	10 to 100	–	–	–	–	37	–	–	–	–
CC(Oc1ccc2[nH]nc(-c3cnn(C)c3)c2c1)c1cccc2ncc(F)cc12 (centres unmarked) [Example 98, 3-fluoro-5-(1-((3-(1-methyl-1H-pyrazol-4-yl)-1H-indazol-5-yl)oxy)ethyl)qu inoline]	47.6	10 to 100	A (A represents 1 ≤ multiple X<20)	2140	> 100	–	–	–	–	45	–	–	–	–
[2H]C([2H])([2H])C(Oc1ccc2[nH]nc(-c3cnn(C)c3)c2c1)c1c(C)ccc2ncccc12 (centres unmarked) [Example 122, 6-methyl-5-(1-((3-(1-methyl-1H-pyrazol-4-yl)-1H-indazol-5-yl)oxy)ethyl-2,2,2-d3)quinoline]	–	< 1	B (B represents 20 ≤ multiple X<50)	–	10 to 100	1 to 10	10 to 100	A (A represents 1 ≤ multiple X<20)	B (B represents 20 ≤ multiple X<50)	–	–	–	–	–
CC(Oc1ccc2[nH]nc(-c3cnn(C)c3)c2c1)c1cccc2ncncc12 (centres unmarked) [Example 99, 5-(1-((3-(1-methyl-1H-pyrazol-4-yl)-1H-indazol-5-yl)oxy)ethyl)qu inazoline]	41.8	10 to 100	A (A represents 1 ≤ multiple X<20)	1760	> 100	–	–	–	–	42	–	–	–	–
CC(Oc1ccc2[nH]nc(-c3cnn(C)c3)c2c1)c1c(CO)ccc2ncccc12 (centres unmarked) [Example 156, (5-(1-((3-(1-methyl-1H-pyrazol-4-yl)-1H-indazol-5-yl)oxy)ethyl)quinolin-6-yl)m ethano]	–	–	B (B represents 20 ≤ multiple X<50)	–	–	–	–	A (A represents 1 ≤ multiple X<20)	A (A represents 1 ≤ multiple X<20)	–	1 to 10	10 to 100	1 to 10	10 to 100

The next lines start with results.

IC50 [1] [nM]	IC50 (FGFR3; [2]) [nM]	Selectivity (X) FGFR1/FGFR3 (FGFR3)	IC50 (Ba/F3-BCR-FGFR1 cells) [nM]	IC50 (FGFR1; [3]) [nM]	IC50 (FGFR2; [4]) [nM]	IC50 (FGFR4; [5]) [nM]	Selectivity (X) FGFR2/FGFR3 (FGFR3)	Selectivity (X) FGFR4/FGFR3 (FGFR3)	Molecule	Selectivity (X) FGFR1/FGFR3 [1] [X]	IC50 (FGFR2) [nM]	IC50 (FGFR4) [nM]	IC50 (FGFR3) [nM]	IC50 (FGFR1) [nM]
26.8	1 to 10	A (A represents 1 ≤ multiple X<20)	1150	10 to 100	–	–	–	–	5-(1-((7-fluoro-3-(1-methyl-1H-pyrazol-4-yl)-1H-indazol-5-yl)oxy)ethyl)-6-methylquinoline [Example 100]	–	–	–	–	–
–	< 1	B (B represents 20 ≤ multiple X<50)	–	10 to 100	1 to 10	10 to 100	C (C represents 50 ≤ multiple X<100)	D (D represents 100 ≤ multiple X)	COC(C)(C)C(=O)N1CC(n2cc(-c3n[nH]c4ccc(OC(C)c5cc(Cl)cc6nccnc56)cc34)cn2)C1 (centres unmarked) [Example 224, 1-(3-(4-(5-(1-(7-chloroquinoxalin-5-yl)ethoxy)-1H-indazol-3-yl)-1-pyrazol-1-yl)azetidin-1-yl)-2-methoxy-2-methylpropan-1-one]	–	–	–	–	–
–	1 to 10	B (B represents 20 ≤ multiple X<50)	–	10 to 100	10 to 100	> 100	A (A represents 1 ≤ multiple X<20)	B (B represents 20 ≤ multiple X<50)	CC(Oc1ccc2[nH]nc(-c3cnn(C)c3)c2c1)c1c(C2CC2)ccc2ncccc12 (centres unmarked) [Example 116, 6-cyclopropyl-5-(1-((3-(1-methyl-1H-pyrazol-4-yl)-1H-indazol-5-yl)oxy)ethyl)qui noline]	–	–	–	–	–
–	1 to 10	B (B represents 20 ≤ multiple X<50)	–	> 100	10 to 100	> 100	A (A represents 1 ≤ multiple X<20)	A (A represents 1 ≤ multiple X<20)	(R)-7-chloro-5-(1-(3,5-dichloropyridin-4-yl)ethoxy)-3-(1-methyl-1H-pyrazol-4-yl)-1H-indazole [Example 3]	–	–	–	–	–
–	< 1	A (A represents 1 ≤ multiple X<20)	–	1 to 10	1 to 10	10 to 100	A (A represents 1 ≤ multiple X<20)	B (B represents 20 ≤ multiple X<50)	CC(Oc1ccc2[nH]nc(-c3cnn(C)c3)c2c1)c1cc(F)cc2nccnc12 (centres unmarked) [Example 142, 7-fluoro-5-(1-((3-(1-methyl-1H-pyrazol-4-yl)-1H-indazol-5-yl)oxy)ethyl)qu inoxaline]	–	–	–	–	–
